Measurements as given in paper PMC9856672, “SGC-CAMKK2-1: A Chemical Probe for CAMKK2” (Cells, 2023).

Assays:
PIK3CD = target: T1, PIK3CD (Homo sapiens, UniProt O00329); experiment: KINOMEscan binding assay at 1 μM, PIK3CD; settings: Compound Concentration 1000 nM; read-out: Percent Control
T1 construct: purchased Eurofins DiscoverX KINOMEscan
Text: (§1) Supplement cells-12-00287-s001.zip/File S2. KinomeScan data for the CAMKK2 probe and negative control.xlsx, sheet "SGC-CAMKK2-1N" | column: Percent Control

ERN1 = target: T2, ERN1 (Homo sapiens, UniProt O75460); experiment: KINOMEscan at 1 μM, ERN1; format: binding; settings: 1000 nM, read-out: Percent Control
T2 construct: purchased Eurofins DiscoverX KINOMEscan
Text: as §1

MKNK2 = target: T3, MKNK2 (Homo sapiens, UniProt Q9HBH9); experiment: KINOMEscan at 1 μM, MKNK2; format: binding; settings: 1000 nM, read-out: Percent Control
T3 construct: purchased Eurofins DiscoverX KINOMEscan
Text: as §1

GRK4 = target: T4, GRK4 (Homo sapiens, UniProt P32298); experiment: KINOMEscan binding assay at 1 μM, GRK4; settings: Compound Concentration 1000 nM; read-out: Percent Control
T4 construct: purchased Eurofins DiscoverX KINOMEscan
Text: as §1

EGFR(T790M) = target: T5, EGFR(T790M) (Homo sapiens, UniProt P00533, T790M); experiment: KINOMEscan at 1 μM, EGFR(T790M); format: binding; settings: 1000 nM, read-out: Percent Control
T5 construct: purchased Eurofins DiscoverX KINOMEscan
Text: as §1

TAOK3 = target: T6, TAOK3 (Homo sapiens, UniProt Q9H2K8); experiment: KINOMEscan at 1 μM, TAOK3; format: binding; settings: 1000 nM, read-out: Percent Control
T6 construct: purchased Eurofins DiscoverX KINOMEscan
Text: as §1

PLK2 = target: T7, PLK2 (Homo sapiens, UniProt Q9NYY3); experiment: KINOMEscan at 1 μM, PLK2; format: binding; settings: 1000 nM, read-out: Percent Control
T7 construct: purchased Eurofins DiscoverX KINOMEscan
Text: as §1

SgK110 = target: T8, SgK110 (Homo sapiens, UniProt P0C264); experiment: KINOMEscan at 1 μM, SgK110; format: binding; settings: 1000 nM, read-out: Percent Control
T8 construct: purchased Eurofins DiscoverX KINOMEscan
Text: as §1

CAMK2G = target: T9, CAMK2G (Homo sapiens, UniProt Q13555); experiment: KINOMEscan at 1 μM, CAMK2G; format: binding; settings: 1000 nM, read-out: Percent Control
T9 construct: purchased Eurofins DiscoverX KINOMEscan
Text: as §1

STK39 = target: T10, STK39 (Homo sapiens, UniProt Q9UEW8); experiment: KINOMEscan at 1 μM, STK39; format: binding; settings: 1000 nM, read-out: Percent Control
T10 construct: purchased Eurofins DiscoverX KINOMEscan
Text: as §1

AAK1 = target: T11, AAK1 (Homo sapiens, UniProt Q2M2I8); experiment: KINOMEscan at 1 μM, AAK1; format: binding; settings: 1000 nM, read-out: Percent Control
T11 construct: purchased Eurofins DiscoverX KINOMEscan
Text: as §1

BRK = target: T12, BRK (Homo sapiens, UniProt Q13882); experiment: KINOMEscan at 1 μM, BRK; format: binding; settings: 1000 nM, read-out: Percent Control
T12 construct: purchased Eurofins DiscoverX KINOMEscan
Text: as §1

PIK3CA(H1047L) = target: T13, PIK3CA(H1047L) (Homo sapiens, UniProt P42336, H1047L); experiment: KINOMEscan at 1 μM, PIK3CA(H1047L); format: binding; settings: 1000 nM, read-out: Percent Control
T13 construct: purchased Eurofins DiscoverX KINOMEscan
Text: as §1

INSR = target: T14, INSR (Homo sapiens, UniProt P06213); experiment: KINOMEscan at 1 μM, INSR; format: binding; settings: 1000 nM, read-out: Percent Control
T14 construct: purchased Eurofins DiscoverX KINOMEscan
Text: as §1

SGK2 = target: T15, SGK2 (Homo sapiens, UniProt Q9HBY8); experiment: KINOMEscan 1 μM, SGK2; format: binding; settings: 1000 nM; Entrez SGK2; read-out: Percent Control
T15 construct: purchased Eurofins DiscoverX KINOMEscan
Text: (§2) Supplement cells-12-00287-s001.zip/File S2. KinomeScan data for the CAMKK2 probe and negative control.xlsx, sheet "SGC-CAMKK2-1" | column: Percent Control

ROS1 = target: T16, ROS1 (Homo sapiens, UniProt P08922); experiment: KINOMEscan 1 μM, ROS1; format: binding; settings: 1000 nM; Entrez ROS1; read-out: Percent Control
T16 construct: purchased Eurofins DiscoverX KINOMEscan
Text: as §2

[1] = target: T17, RSK1(Kin.Dom.2-C-terminal) (Homo sapiens, UniProt Q15418); experiment: KINOMEscan 1 μM, RSK1(Kin.Dom.2-C-terminal); format: binding; settings: 1000 nM; Entrez RPS6KA1; read-out: Percent Control
T17 construct: RSK1(Kin.Dom.2-C-terminal); purchased Eurofins DiscoverX KINOMEscan
Text: as §2

KIT(V559D) = target: T18, KIT(V559D) (Homo sapiens, UniProt P10721, V559D); experiment: KINOMEscan 1 μM, KIT(V559D); format: binding; settings: 1000 nM; Entrez KIT; read-out: Percent Control
T18 construct: purchased Eurofins DiscoverX KINOMEscan
Text: as §2

CDK4-cyclinD1 = target: T19, CDK4-cyclinD1 (Homo sapiens, UniProt P11802); experiment: KINOMEscan 1 μM, CDK4-cyclinD1; format: binding; settings: 1000 nM; Entrez CDK4; read-out: Percent Control
T19 construct: purchased Eurofins DiscoverX KINOMEscan
Text: as §2

DRAK2 = target: T20, DRAK2 (Homo sapiens, UniProt O94768); experiment: KINOMEscan 1 μM, DRAK2; format: binding; settings: 1000 nM; Entrez STK17B; read-out: Percent Control
T20 construct: purchased Eurofins DiscoverX KINOMEscan
Text: as §2

CAMK2D = target: T21, CAMK2D (Homo sapiens, UniProt Q13557); experiment: KINOMEscan 1 μM, CAMK2D; format: binding; settings: 1000 nM; Entrez CAMK2D; read-out: Percent Control
T21 construct: purchased Eurofins DiscoverX KINOMEscan
Text: as §2

CSNK2A2 = target: T22, CSNK2A2 (Homo sapiens, UniProt P19784); experiment: KINOMEscan 1 μM, CSNK2A2; format: binding; settings: 1000 nM; Entrez CSNK2A2; read-out: Percent Control
T22 construct: purchased Eurofins DiscoverX KINOMEscan
Text: as §2

CSF1R-autoinhibited = target: T23, CSF1R-autoinhibited (Homo sapiens, UniProt P07333); experiment: KINOMEscan 1 μM, CSF1R-autoinhibited; format: binding; settings: 1000 nM; Entrez CSF1R; read-out: Percent Control
T23 construct: purchased Eurofins DiscoverX KINOMEscan
Text: as §2

CDKL5 = target: T24, CDKL5 (Homo sapiens, UniProt O76039); experiment: KINOMEscan 1 μM, CDKL5; format: binding; settings: 1000 nM; Entrez CDKL5; read-out: Percent Control
T24 construct: purchased Eurofins DiscoverX KINOMEscan
Text: as §2

IKK-beta = target: T25, IKK-beta (Homo sapiens, UniProt O14920); experiment: KINOMEscan 1 μM, IKK-beta; format: binding; settings: 1000 nM; Entrez IKBKB; read-out: Percent Control
T25 construct: purchased Eurofins DiscoverX KINOMEscan
Text: as §2

AKT3 = target: T26, AKT3 (Homo sapiens, UniProt Q9Y243); experiment: KINOMEscan 1 μM, AKT3; format: binding; settings: 1000 nM; Entrez AKT3; read-out: Percent Control
T26 construct: purchased Eurofins DiscoverX KINOMEscan
Text: as §2

PAK2 = target: T27, PAK2 (Homo sapiens, UniProt Q13177); experiment: KINOMEscan 1 μM, PAK2; format: binding; settings: 1000 nM; Entrez PAK2; read-out: Percent Control
T27 construct: purchased Eurofins DiscoverX KINOMEscan
Text: as §2

PIM1 = target: T28, PIM1 (Homo sapiens, UniProt P11309); experiment: KINOMEscan 1 μM, PIM1; format: binding; settings: 1000 nM; Entrez PIM1; read-out: Percent Control
T28 construct: purchased Eurofins DiscoverX KINOMEscan
Text: as §2

MINK = target: T29, MINK (Homo sapiens, UniProt Q8N4C8); experiment: KINOMEscan 1 μM, MINK; format: binding; settings: 1000 nM; Entrez MINK1; read-out: Percent Control
T29 construct: purchased Eurofins DiscoverX KINOMEscan
Text: as §2

PIP5K1A = target: T30, PIP5K1A (Homo sapiens, UniProt Q99755); experiment: DiscoverX KINOMEscan binding assay at 1 μM, PIP5K1A; settings: Compound Concentration 1000 nM, read-out: Percent Control
T30 construct: purchased Eurofins DiscoverX KINOMEscan
Text: as §2

CAMK1G = target: T31, CAMK1G (Homo sapiens, UniProt Q96NX5); experiment: KINOMEscan 1 μM, CAMK1G; format: binding; settings: 1000 nM; Entrez CAMK1G; read-out: Percent Control
T31 construct: purchased Eurofins DiscoverX KINOMEscan
Text: as §2

WEE1 = target: T32, WEE1 (Homo sapiens, UniProt P30291); experiment: KINOMEscan 1 μM, WEE1; format: binding; settings: 1000 nM; Entrez WEE1; read-out: Percent Control
T32 construct: purchased Eurofins DiscoverX KINOMEscan
Text: as §2

T4 sequence (P32298 whole entry): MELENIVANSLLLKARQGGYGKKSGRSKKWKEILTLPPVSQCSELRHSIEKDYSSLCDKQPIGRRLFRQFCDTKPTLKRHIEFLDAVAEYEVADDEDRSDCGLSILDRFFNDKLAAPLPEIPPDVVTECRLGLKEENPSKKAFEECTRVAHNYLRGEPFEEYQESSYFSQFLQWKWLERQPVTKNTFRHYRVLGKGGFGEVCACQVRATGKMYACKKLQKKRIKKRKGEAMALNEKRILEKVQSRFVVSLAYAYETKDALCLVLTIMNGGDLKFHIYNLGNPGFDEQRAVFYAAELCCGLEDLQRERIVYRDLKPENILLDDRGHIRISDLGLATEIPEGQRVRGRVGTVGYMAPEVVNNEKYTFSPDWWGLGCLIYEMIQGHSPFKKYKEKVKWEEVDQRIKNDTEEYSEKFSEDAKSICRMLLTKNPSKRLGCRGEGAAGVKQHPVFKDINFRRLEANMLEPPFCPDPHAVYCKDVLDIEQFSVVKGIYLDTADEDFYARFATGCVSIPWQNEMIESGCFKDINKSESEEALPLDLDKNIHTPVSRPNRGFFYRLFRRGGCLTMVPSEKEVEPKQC
T13 sequence (P42336 whole entry H1047L): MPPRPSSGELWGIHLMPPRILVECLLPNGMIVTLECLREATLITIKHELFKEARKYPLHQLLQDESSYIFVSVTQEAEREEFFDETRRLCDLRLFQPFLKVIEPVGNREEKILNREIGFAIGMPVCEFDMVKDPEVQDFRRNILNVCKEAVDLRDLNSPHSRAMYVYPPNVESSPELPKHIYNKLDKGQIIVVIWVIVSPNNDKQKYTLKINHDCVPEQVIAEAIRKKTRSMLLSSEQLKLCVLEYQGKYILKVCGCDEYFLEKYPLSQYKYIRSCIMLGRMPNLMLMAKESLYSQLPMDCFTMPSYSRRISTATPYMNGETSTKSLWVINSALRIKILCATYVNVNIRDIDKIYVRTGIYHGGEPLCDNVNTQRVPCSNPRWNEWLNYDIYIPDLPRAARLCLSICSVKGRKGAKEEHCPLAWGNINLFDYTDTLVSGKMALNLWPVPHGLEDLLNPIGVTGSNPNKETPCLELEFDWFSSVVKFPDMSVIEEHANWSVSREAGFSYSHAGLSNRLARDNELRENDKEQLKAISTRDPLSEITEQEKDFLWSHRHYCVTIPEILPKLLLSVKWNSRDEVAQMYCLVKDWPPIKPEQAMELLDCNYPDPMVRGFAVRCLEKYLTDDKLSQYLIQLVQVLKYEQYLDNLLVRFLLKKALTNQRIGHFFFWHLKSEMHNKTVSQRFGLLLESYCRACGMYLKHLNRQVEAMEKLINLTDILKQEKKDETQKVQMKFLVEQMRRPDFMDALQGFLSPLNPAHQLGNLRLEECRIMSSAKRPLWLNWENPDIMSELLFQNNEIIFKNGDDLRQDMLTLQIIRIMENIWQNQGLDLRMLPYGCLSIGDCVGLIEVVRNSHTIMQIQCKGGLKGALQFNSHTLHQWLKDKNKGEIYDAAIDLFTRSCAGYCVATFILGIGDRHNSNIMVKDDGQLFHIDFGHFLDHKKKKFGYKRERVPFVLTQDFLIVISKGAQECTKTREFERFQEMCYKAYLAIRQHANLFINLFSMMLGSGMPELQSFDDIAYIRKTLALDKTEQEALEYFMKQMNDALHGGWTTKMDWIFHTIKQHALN
T6 sequence (Q9H2K8 whole entry): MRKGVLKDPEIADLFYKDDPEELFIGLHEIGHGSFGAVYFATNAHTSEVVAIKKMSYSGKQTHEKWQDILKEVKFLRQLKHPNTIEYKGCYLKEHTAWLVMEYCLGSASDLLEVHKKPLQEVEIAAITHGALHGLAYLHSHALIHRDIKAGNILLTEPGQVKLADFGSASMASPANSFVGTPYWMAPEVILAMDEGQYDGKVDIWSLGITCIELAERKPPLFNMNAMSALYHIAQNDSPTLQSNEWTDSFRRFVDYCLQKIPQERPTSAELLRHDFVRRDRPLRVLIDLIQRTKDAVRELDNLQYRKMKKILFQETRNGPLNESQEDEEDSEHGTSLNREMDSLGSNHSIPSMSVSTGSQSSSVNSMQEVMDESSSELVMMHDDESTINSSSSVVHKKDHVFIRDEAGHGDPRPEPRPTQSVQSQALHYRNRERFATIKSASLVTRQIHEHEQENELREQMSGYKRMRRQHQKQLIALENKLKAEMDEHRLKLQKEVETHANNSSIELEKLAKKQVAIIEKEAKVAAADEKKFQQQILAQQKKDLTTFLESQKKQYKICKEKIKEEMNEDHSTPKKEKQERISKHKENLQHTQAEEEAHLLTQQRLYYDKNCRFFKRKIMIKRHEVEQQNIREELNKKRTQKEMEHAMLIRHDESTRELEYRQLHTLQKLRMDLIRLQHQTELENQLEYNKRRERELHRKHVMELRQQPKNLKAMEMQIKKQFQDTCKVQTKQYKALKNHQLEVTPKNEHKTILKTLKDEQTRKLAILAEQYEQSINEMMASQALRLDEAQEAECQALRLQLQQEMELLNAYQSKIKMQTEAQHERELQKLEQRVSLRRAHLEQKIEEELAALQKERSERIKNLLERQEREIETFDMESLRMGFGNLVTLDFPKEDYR
T12 sequence (Q13882 whole entry): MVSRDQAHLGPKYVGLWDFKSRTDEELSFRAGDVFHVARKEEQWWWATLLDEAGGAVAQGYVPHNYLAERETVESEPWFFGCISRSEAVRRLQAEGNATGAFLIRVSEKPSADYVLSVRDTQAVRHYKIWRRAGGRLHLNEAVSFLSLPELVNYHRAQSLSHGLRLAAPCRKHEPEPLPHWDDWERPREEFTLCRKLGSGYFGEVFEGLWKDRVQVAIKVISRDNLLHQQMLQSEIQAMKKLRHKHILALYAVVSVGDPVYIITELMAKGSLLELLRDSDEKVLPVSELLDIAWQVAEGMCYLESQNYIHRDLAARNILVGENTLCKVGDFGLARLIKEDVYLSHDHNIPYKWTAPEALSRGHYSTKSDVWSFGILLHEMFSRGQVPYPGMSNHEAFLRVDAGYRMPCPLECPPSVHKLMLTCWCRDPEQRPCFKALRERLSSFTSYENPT
T29 sequence (Q8N4C8 whole entry): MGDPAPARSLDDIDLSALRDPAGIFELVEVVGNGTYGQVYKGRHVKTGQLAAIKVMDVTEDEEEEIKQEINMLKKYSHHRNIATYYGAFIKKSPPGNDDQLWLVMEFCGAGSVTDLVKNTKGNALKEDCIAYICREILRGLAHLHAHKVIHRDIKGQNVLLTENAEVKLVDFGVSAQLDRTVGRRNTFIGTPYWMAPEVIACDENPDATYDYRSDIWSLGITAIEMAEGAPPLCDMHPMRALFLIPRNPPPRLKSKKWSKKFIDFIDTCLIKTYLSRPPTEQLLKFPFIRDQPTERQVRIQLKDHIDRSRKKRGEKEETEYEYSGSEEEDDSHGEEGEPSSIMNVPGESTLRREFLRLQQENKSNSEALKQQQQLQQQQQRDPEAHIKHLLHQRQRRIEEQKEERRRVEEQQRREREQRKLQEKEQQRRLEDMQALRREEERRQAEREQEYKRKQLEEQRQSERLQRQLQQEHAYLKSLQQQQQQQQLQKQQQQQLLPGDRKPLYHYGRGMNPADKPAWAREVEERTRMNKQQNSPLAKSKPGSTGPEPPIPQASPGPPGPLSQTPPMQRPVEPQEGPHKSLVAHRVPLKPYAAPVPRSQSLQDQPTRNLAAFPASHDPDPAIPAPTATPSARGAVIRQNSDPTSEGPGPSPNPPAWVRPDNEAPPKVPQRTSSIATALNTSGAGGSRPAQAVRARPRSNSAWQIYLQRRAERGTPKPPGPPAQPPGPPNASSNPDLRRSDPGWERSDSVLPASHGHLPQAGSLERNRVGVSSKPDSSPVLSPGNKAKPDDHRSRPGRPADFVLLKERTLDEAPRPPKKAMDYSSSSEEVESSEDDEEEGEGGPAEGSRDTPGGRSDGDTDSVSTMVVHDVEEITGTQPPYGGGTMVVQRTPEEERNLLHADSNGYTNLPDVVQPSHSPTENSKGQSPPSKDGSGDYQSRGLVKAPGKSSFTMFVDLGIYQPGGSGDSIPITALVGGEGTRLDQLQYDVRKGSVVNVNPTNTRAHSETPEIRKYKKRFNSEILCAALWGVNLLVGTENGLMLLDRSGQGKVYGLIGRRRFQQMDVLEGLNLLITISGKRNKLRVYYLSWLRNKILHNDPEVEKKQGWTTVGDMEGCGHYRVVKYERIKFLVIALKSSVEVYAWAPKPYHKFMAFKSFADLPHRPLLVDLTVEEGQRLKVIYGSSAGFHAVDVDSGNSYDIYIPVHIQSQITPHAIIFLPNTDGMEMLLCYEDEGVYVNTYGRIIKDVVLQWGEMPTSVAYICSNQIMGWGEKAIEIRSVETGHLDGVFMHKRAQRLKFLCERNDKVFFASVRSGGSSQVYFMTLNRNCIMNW
T15 sequence (Q9HBY8 whole entry): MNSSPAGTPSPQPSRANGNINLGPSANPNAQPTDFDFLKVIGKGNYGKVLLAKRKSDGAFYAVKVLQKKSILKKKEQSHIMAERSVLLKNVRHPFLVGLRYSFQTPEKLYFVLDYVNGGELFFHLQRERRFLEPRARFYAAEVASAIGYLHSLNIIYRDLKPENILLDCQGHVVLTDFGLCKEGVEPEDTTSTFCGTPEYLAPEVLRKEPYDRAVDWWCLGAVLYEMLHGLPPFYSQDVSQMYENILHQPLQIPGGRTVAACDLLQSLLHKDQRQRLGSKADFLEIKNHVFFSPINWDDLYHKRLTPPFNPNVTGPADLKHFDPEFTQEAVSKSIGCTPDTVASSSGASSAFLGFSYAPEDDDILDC
T28 sequence (P11309 whole entry): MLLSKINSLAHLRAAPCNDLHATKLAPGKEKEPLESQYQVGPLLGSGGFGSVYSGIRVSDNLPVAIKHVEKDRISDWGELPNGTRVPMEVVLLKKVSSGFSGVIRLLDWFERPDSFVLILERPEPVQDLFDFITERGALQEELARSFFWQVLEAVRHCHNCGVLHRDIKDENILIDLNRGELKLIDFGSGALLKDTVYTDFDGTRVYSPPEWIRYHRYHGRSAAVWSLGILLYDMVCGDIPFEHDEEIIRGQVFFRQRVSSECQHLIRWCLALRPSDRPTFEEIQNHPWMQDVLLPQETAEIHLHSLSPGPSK

Compound: O=C(O)c1ccc(-c2coc3ncc(-c4ccccc4)cc23)cc1Cl [SGC-CAMKK2-1N (UNC-YL-83)]
- remaining binding at 1 µM (PIK3CD): 100%
- remaining binding at 1 µM (ERN1): 76%
- remaining binding at 1 µM (MKNK2): 67%
- remaining binding at 1 µM (GRK4): 100%
- remaining binding at 1 µM (EGFR(T790M)): 85%
- remaining binding at 1 µM (TAOK3): 79%
- remaining binding at 1 µM (PLK2): 91%
- remaining binding at 1 µM (SgK110): 69%
- remaining binding at 1 µM (CAMK2G): 85%
- remaining binding at 1 µM (STK39): 77%
- remaining binding at 1 µM (AAK1): 87%
- remaining binding at 1 µM (BRK): 96%
- remaining binding at 1 µM (PIK3CA(H1047L)): 53%
- remaining binding at 1 µM (INSR): 93%

Compound: Cc1cccc(-c2cnc3occ(-c4ccc(C(=O)O)c(C5CCCC5)c4)c3c2)c1 [SGC-CAMKK2-1 (YL-36)]
- remaining binding at 1 µM (SGK2): 78%
- remaining binding at 1 µM (ROS1): 84%
- remaining binding at 1 µM [1]: 80%
- remaining binding at 1 µM (KIT(V559D)): 100%
- remaining binding at 1 µM (CDK4-cyclinD1): 100%
- remaining binding at 1 µM (DRAK2): 100%
- remaining binding at 1 µM (CAMK2D): 98%
- remaining binding at 1 µM (CSNK2A2): 100%
- remaining binding at 1 µM (CSF1R-autoinhibited): 85%
- remaining binding at 1 µM (CDKL5): 100%
- remaining binding at 1 µM (IKK-beta): 100%
- remaining binding at 1 µM (AKT3): 100%
- remaining binding at 1 µM (PAK2): 55%
- remaining binding at 1 µM (PIM1): 76%
- remaining binding at 1 µM (MINK): 100%
- remaining binding at 1 µM (PIP5K1A): 100%
- remaining binding at 1 µM (CAMK1G): 54%
- remaining binding at 1 µM (WEE1): 82%
